According to patent US20040180888A1 (priority 2001, published 2004):
Where two headings read alike, the source gives them in different places. Each block holds one molecule with its values, some of them ahead of it.

Columns and labels:
HIV-1 Y181C = assay: microbe, parasite or virus in culture; format: cell-based; conditions: for Y181C (Nx) resistance shift: EC50 Y181C versus WTIIIB
HIV-1 WTIIIB [1] = assay: Protection of MT-4 cells from HIV-1-induced cytopathogenicity, MTT method, WTIIIB; format: cell-based
Source text: Example 26 illustrates the influence of substituents at positions 4, 5, 6, and 7 of the indole ring, in which position 2 of the indole ring is maintained constant, and the substitution at the 3,5-position of the phenyl ring is either hydrogen or held constant with a 3,5-dimethyl substitution. Table 3 presents the influence of these variations on the ability of the compounds to protect cells from HIV-1 induced pathogenecity.

[2] = Viability of mock-infected MT-4 cells, MTT method; format: cell-based; conditions: human; mock-infected MT-4 cells, MTT
HIV-1 K103R = assay: microbe, parasite or virus in culture; format: cell-based; conditions: for K103R (Nx) resistance shift: EC90 K103R versus WTIIIB
HIV-1 WTIIIB [3] = assay: p24 reduction in virus-infected C8166 cells, WTIIIB; format: cell-based
HIV-1 K103N-Y181C = assay: microbe, parasite or virus in culture; format: cell-based; conditions: for K103N-Y181C (Nx) resistance shift: EC50 K103N-Y181C versus WTIIIB
mock-infected MT-4 cells = assay: Viability of mock-infected MT-4 cells, MTT method; format: cell-based
HIV-1 = conditions: for (Nx) protein binding shift α-GP 1 mg/mL: EC90 with 1 mg/mL glycoprotein versus RPMI; for (Nx) protein binding shift HSA 45 mg/mL: EC90 with 45 mg/mL HSA versus RPMI
[4] = Human immunodeficiency virus 1, MT4, read-out: Y181C EC50
[5] = Human immunodeficiency virus 1, MT4, 50% protection of MT-4 cells
[6] = Human immunodeficiency virus 1, MT4, read-out: K103N-Y181C EC50
[7] = read-out: EC90 HSA 45 mg/mL, HIV-1-infected MT-4 cells, RPMI 10% FCS plus 45 mg/mL human serum albumin
[8] = read-out: EC90 RPMI, reduce p24 by 90% in HIV-1-infected MT-4 cells, RPMI 10% FCS
[9] = read-out: EC90 α-GP 1 mg/mL, HIV-1-infected MT-4 cells, RPMI 10% FCS plus 1 mg/mL glycoprotein
[10] = 50% protection of MT-4 cells, MTT, read-out: Y181C EC50
[11] = reduce p24 by 90% in virus-infected C8166 cells, read-out: K103R EC90
[12] = reduce p24 by 90% in virus-infected C8166 cells, read-out: WTIIIB EC90
[13] = 50% protection of MT-4 cells, MTT, read-out: K103N-Y181C EC50

melting point: 298 to 300 °C
Molecule: Cc1cc(C)cc(S(=O)(=O)c2c(CC(N)=O)[nH]c3ccc(F)c(F)c23)c1 [compound 11, 3-(3,5-Dimethylphenylsulfonyl)-4,5-difluoroindole-2-carboxyamide]

Molecule: O=C1Nc2ccc(Cl)cc2[C@@](C#CC2CC2)(C(F)(F)F)O1 [EFV, efavirenz, reference compound]
EC50 (HIV-1 Y181C; [4]): 25 nM
EC50 (HIV-1 WTIIIB [1]; [5]): 4 nM
CC50 [2]: 35000 nM
EC90 (HIV-1 K103R; Human immunodeficiency virus 1, C8166, read-out: K103R EC90): 1800 nM
EC90 (HIV-1 WTIIIB [3]; Human immunodeficiency virus 1, C8166, read-out: WTIIIB EC90): 8 nM
EC50 (HIV-1 K103N-Y181C; [6]): 150 nM

Molecule: Cc1cc(C)cc(S(=O)(=O)c2c(C(=O)N3CCN(C)CC3)[nH]c3ccc(Cl)cc23)c1 [Compd 13]
CC50 (mock-infected MT-4 cells): > 200000 nM

melting point: 262 to 264 °C
Molecule: Cc1cc(C)cc(S(=O)(=O)c2c(CC(N)=O)[nH]c3cc(Cl)c(F)cc23)c1 [5i, 6-Chloro-3-(3,5-dimethylphenylsulfonyl)-5-fluoroindole-2-carboxyamide]

melting point: 268 to 270 °C
Molecule: Cc1cc(C)cc(S(=O)(=O)c2c(CC(N)=O)[nH]c3ccc(Cl)c(F)c23)c1 [5g, 5-Chloro-3-(3,5-dimethylphenylsulfonyl)-4-fluoroindole-2-carboxyamide]

Molecule: 5-Chloro-3-(3,5-dimethylphenylsulfonyl)-indole-2-carboxyamide [compound 2]
(Nx) protein binding shift α-GP 1 mg/mL (HIV-1): 2 x
(Nx) protein binding shift HSA 45 mg/mL (HIV-1): 40 x
EC90 (HIV-1; [7]): 200 nM
EC90 (HIV-1; [8]): 5 nM
EC90 (HIV-1; [9]): 10 nM

Molecule: NC(=O)c1[nH]c2cc(Cl)c(Cl)cc2c1S(=O)(=O)c1ccccc1 [compound 8]
EC50 (HIV-1 Y181C; [10]): 2600 nM
Y181C (Nx) resistance shift (HIV-1 Y181C): 18 x
EC50 (HIV-1 WTIIIB [1]; 50% protection of MT-4 cells): 140 nM
CC50 (mock-infected MT-4 cells): 123000 nM
K103R (Nx) resistance shift (HIV-1 K103R): 94 x
EC90 (HIV-1 K103R; [11]): 16000 nM
EC90 (HIV-1 WTIIIB [3]; [12]): 170 nM
EC50 (HIV-1 K103N-Y181C; [13]): > 100000 nM
K103N-Y181C (Nx) resistance shift (HIV-1 K103N-Y181C): > 714 x

Molecule: Cc1ccnc2c1NC(=O)c1cccnc1N2C1CC1 [NVP, nevirapine, reference compound]
EC50 (HIV-1 Y181C; [4]): > 30000 nM
EC50 (HIV-1 WTIIIB [1]; [5]): 370 nM
CC50 [2]: 200000 nM
EC50 (HIV-1 K103N-Y181C; [6]): > 30000 nM

melting point: > 300 °C
Molecule: CC(=O)c1ccc2[nH]c(CC(N)=O)c(Sc3cc(C)cc(C)c3)c2c1 [5l, 5-Acetyl-3-(3,5-dimethylphenylthio)indole-2-carboxyamide]

melting point: > 300 °C
Molecule: Cc1cc(C)cc(S(=O)(=O)c2c(CC(N)=O)[nH]c3c(Cl)cc(Cl)cc23)c1 [compound 10, 5,7-Dichloro-3-(3,5-dimethylphenylsulfonyl)indole-2-carboxyamide]

Molecule: Cc1cc(C)cc(S(=O)(=O)c2c(C(=O)NNC(C)C)[nH]c3ccc(Cl)cc23)c1 [Compd 11]
CC50 (mock-infected MT-4 cells): 17000 nM

Molecule: CNNC(=O)c1[nH]c2ccc(Cl)cc2c1S(=O)(=O)c1cc(C)cc(C)c1 [Compd 10]
CC50 (mock-infected MT-4 cells): > 200000 nM

Molecule: Cc1cc(C)cc(S(=O)(=O)c2c(C(=O)NCC(N)=O)[nH]c3ccc(Cl)cc23)c1 [compound 4, 2-[N-[5-Chloro-3-(3,5-dimethylphenylsulfonyl)indol-2-carboxy-amido]]-acetamide]
EC50 (HIV-1 Y181C; [10]): 30 nM
Y181C (Nx) resistance shift (HIV-1 Y181C): 5 x
EC50 (HIV-1 WTIIIB [1]; 50% protection of MT-4 cells): 6 nM
CC50 (mock-infected MT-4 cells): 30000 nM
K103R (Nx) resistance shift (HIV-1 K103R): 10 x
EC90 (HIV-1 K103R; [11]): 100 nM
EC90 (HIV-1 WTIIIB [3]; [12]): 10 nM
(Nx) protein binding shift α-GP 1 mg/mL (HIV-1): 3 x
(Nx) protein binding shift HSA 45 mg/mL (HIV-1): 80 x
EC90 (HIV-1; [7]): 4800 nM
EC90 (HIV-1; [8]): 60 nM
EC90 (HIV-1; [9]): 200 nM
EC50 (HIV-1 K103N-Y181C; [13]): 800 nM
K103N-Y181C (Nx) resistance shift (HIV-1 K103N-Y181C): 133 x

Molecule: NC(=O)c1[nH]c2ccc(Cl)cc2c1S(=O)(=O)c1ccccc1 [compound 1]
(Nx) protein binding shift α-GP 1 mg/mL (HIV-1): 2 x
(Nx) protein binding shift HSA 45 mg/mL (HIV-1): 10 x
EC90 (HIV-1; [7]): 10 nM
EC90 (HIV-1; [8]): 1 nM
EC90 (HIV-1; [9]): 2 nM

Molecule: Cc1cc(C)cc(S(=O)(=O)c2c(C(=O)NNCCO)[nH]c3ccc(Cl)cc23)c1 [compound 3, 5-Chloro-3-(3,5-dimethylphenylsulfonyl)indole-2-[N′-(2-hydroxy-ethyl)]-carboxyhydrazide]
(Nx) protein binding shift α-GP 1 mg/mL (HIV-1): 7 x
(Nx) protein binding shift HSA 45 mg/mL (HIV-1): 67 x
EC90 (HIV-1; [7]): 270 nM
EC90 (HIV-1; [8]): 4 nM
EC90 (HIV-1; [9]): 30 nM

melting point: 250 °C
Molecule: NC(=O)Cc1[nH]c2ccc(-n3cccc3)cc2c1S(=O)(=O)c1ccccc1 [25a, 5-(1H-Pyrrol-1-yl)-3-(phenylsulfonyl)indole-2-carboxyamide]

melting point: 279 to 280 °C
Molecule: Cc1cc(C)cc(S(=O)(=O)c2c(CC(N)=O)[nH]c3ccc(F)c(Cl)c23)c1 [5h, 4-Chloro-3-(3,5-dimethylphenylsulfonyl)-5-fluoroindole-2-carboxyamide]

melting point: > 300 °C
Molecule: Cc1cc(C)cc(S(=O)(=O)c2c(CC(N)=O)[nH]c3c(F)cc(F)cc23)c1 [compound 13, 3-(3,5-Dimethylphenylsulfonyl)-5,7-difluoroindole-2-carboxyamide]

melting point: 270 to 272 °C
Molecule: Cc1cc(C)cc(S(=O)(=O)c2c(CC(N)=O)[nH]c3ccc([N+](=O)[O-])cc23)c1 [5k, 5-Nitro-3-(3,5-dimethylphenylsulfonyl)indole-2-carboxyamide]

Molecule: Cc1cc(C)cc(S(=O)(=O)c2c(C(N)=O)[nH]c3cc(F)c(F)cc23)c1 [compound 12, 3-(3,5-Dimethylpbenylsulfonyl)-5,6-difluoroindole-2-carboxyamide]
EC50 (HIV-1 Y181C; [10]): 70 nM
Y181C (Nx) resistance shift (HIV-1 Y181C): (≧23.3) x
EC50 (HIV-1 WTIIIB [1]; 50% protection of MT-4 cells): ≤ 3 nM
EC50 (HIV-1 K103N-Y181C; [13]): 2600 nM
K103N-Y181C (Nx) resistance shift (HIV-1 K103N-Y181C): ≥ 866 x
